The record followed here is US20060269605A1, “Multilayer pharmaceutical dosage form containing a substance that acts in a modulatory manner with regard to the release of active substances” (Roehm Gmbh & Co. KG, priority 2003, published 2006).

SMILES strings stand for the structures.

This data set in a line: active ingredient delivery in PhEur phosphate buffer of pH 6.8 in a USP dissolution tester. It is filed as physicochemical. As to conditions: modulator as core of theophylline pellets coated with EUDRAGIT RS, no inner controlling layer, versus microcrystalline cellulose core (Example 5).
As for `[Cl-].[Na+]` [sodium chloride], the “effect of the substance having a modulating effect on active ingredient delivery” value (shortened to “effect”) was “reducing effect”.

In the case of `O=C(O)CC(O)(CC(=O)O)C(=O)O` [citric acid], the “effect” value is reported as “accelerating effect”.

Take `O=C([O-])CCC(=O)[O-].[Na+].[Na+]` [sodium succinate]: the “effect” value was “accelerating effect”. The entry for `CC(=O)[O-].[Na+]` [sodium acetate] is “accelerating effect”.
